Laboratory results published in patent publication US10072011B2, “Substituted bridged urea analogs as sirtuin modulators” (GlaxoSmithKline Intellectual Property (No.2) Limited, priority 2014, dated 2018).
Read-outs that look alike come from different tables or passages of the source.

Biological target: T1, SIRT1 (Homo sapiens, UniProt Q96EB6)
T1 sequence (Q96EB6 1-747): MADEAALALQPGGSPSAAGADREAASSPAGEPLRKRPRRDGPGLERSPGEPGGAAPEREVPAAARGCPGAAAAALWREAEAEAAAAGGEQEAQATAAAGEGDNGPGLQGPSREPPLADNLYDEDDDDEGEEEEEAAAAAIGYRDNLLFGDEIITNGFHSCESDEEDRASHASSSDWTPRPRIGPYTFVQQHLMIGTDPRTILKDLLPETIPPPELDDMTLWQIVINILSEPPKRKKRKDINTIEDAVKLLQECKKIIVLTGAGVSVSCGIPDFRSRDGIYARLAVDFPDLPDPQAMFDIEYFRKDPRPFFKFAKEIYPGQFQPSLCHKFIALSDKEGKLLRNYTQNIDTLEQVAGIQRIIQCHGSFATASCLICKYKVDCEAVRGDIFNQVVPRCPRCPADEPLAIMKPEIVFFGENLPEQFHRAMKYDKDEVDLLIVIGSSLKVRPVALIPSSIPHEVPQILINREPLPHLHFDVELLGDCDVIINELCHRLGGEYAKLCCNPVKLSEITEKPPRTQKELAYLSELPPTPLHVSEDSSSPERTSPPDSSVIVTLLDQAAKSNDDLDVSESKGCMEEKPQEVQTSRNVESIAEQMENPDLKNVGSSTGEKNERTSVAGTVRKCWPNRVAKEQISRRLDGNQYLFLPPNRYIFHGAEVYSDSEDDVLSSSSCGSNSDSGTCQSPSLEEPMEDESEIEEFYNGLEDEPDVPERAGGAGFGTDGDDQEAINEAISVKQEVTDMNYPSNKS
Assay: Trp mass spectrometry assay of SIRT1 activation (Ac-R-H-K-K(Ac)-W-NH2 peptide)
Format: biochemical
Details: for Emax: 25 min, read-out: TRP MAX RESP (percent maximum fold activation)
Summary of the method: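 Mass spectrometry read-out (OAADPR formed, or deacetylated Trp peptide) after a 25 min NAD-dependent deacetylation by E. coli-expressed His-SIRT1, stopped with formic acid.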

[1] = Trp peptide 0.5 μM, 120 μM βNAD+, 10 nM SIRT1, 25 min at 25° C., relative to control (100%)
[2] = Trp peptide 0.5 μM, 120 μM βNAD+, 10 nM SIRT1, 25 min at 25° C.

Compound	Emax [1]	TRP Activity (EC1.5, concentration of test compound that results in 150% activation of SIRT1) [2]	TRP MAX RESP (percent maximum fold activation) [1]	Emax
C[C@@H](NC(=O)c1ccc2c(n1)N(C(=O)Nc1cc(-c3cnn[nH]3)ccn1)[C@H]1CCN2C1)C(F)(F)F [Example 296, (4S)—N5-(4-(1H-1,2,3-triazol-5-yl)pyridin-2-yl)-N7-((R)-1,1,1-trifluoropropan-2-yl)-3,4-dihydro-1,4-methanopyrido[2,3-b][1,4]diazepine-5,7(2H)-dicarboxamide]	< 150%	A (EC1.5<1 μM)	–	–
NC(=O)c1ccc2c(n1)N(C(=O)Nc1ccccn1)[C@H]1CCN2C1 [Example 257, (4S)—N5-(pyridin-2-yl)-3,4-dihydro-1,4-methanopyrido[2,3-b][1,4]diazepine-5,7(2H)-dicarboxamide]	> 150%	B (EC1.5 1-25 μM)	–	–
O=C(NC1CC1(F)F)c1ccc2c(n1)N(C(=O)Nc1cccnn1)[C@H]1CCN2C1 (single isomer, unassigned) [Example 271]	–	B (EC1.5 1-25 μM)	A (Fold activation≥150%)	–
C[C@@H](NC(=O)c1ccc2c(n1)N(C(=O)Nc1cc(OCCN(C)C)ccn1)[C@H]1CCN2C1)C(F)(F)F [Example 268, (4S)—N5-(4-(2-(dimethylamino)ethoxy)pyridin-2-yl)-N7-((R)-1,1,1-trifluoropropan-2-yl)-3,4-dihydro-1,4-methanopyrido[2,3-b][1,4]diazepine-5,7(2H)-dicarboxamide]	> 150%	B (EC1.5 1-25 μM)	–	–
C[C@@H](NC(=O)c1ccc2c(n1)N(C(=O)Nc1ncc(OC[C@H](O)CO)cn1)[C@H]1CCN2C1)C(F)(F)F [Example 173, (4S)—N5-(5-((R)-2,3-dihydroxypropoxy)pyrimidin-2-yl)-N7-((R)-1,1,1-trifluoropropan-2-yl)-3,4-dihydro-1,4-methanopyrido[2,3-b][1,4]diazepine-5,7(2H)-dicarboxamide]	> 150%	A (EC1.5<1 μM)	–	–
O=C(NC1CC1(F)F)c1ccc2c(n1)N(C(=O)Nc1cc(OC[C@H](O)CO)ccn1)[C@H]1CCN2C1 (single isomer, unassigned) [Example 306]	–	B (EC1.5 1-25 μM)	B (Fold Activation<150%)	–
O=C(NC1CCOC1)c1ccc2c(n1)N(C(=O)Nc1ccccn1)[C@H]1CCN2C1 (stereo partly drawn) [Example 6, (4S)—N-5-(pyridin-2-yl)-N-7-(tetrahydrofuran-3-yl)-3,4-dihydro-1,4-methano pyrido [2,3-b] [1, 4] diazepine-5, 7(2H)-dicarboxamide]	> 150%	B (EC1.5 1-25 μM)	–	–
C[C@@H](NC(=O)c1ccc2c(n1)N(C(=O)Nc1nccc(OC[C@@H](O)CO)n1)[C@H]1CCN2C1)C(F)(F)F [Example 154, (4S)—N5-(4-((S)-2,3-dihydroxypropoxy)pyrimidin-2-yl)-N7-((R)-1,1,1-trifluoropropan-2-yl)-3,4-dihydro-1,4-methanopyrido[2,3-b][1,4]diazepine-5,7(2H)-dicarboxamide]	> 150%	A (EC1.5<1 μM)	–	–
Cc1ccc(NC(=O)N2c3nc(C(=O)NC4CC4)ccc3N3CC[C@H]2C3)nc1 [Example 215, (4S)—N7-cyclopropyl-N5-(5-methylpyridin-2-yl)-3,4-dihydro-1,4-methanopyrido[2,3-b][1,4]diazepine-5,7(2H)-dicarboxamide]	> 150%	B (EC1.5 1-25 μM)	–	–
Cc1ncc(-c2ccnc(NC(=O)N3c4nc(C(=O)N[C@@H](C)C(F)(F)F)ccc4N4CC[C@H]3C4)c2)o1 [Example 126, (4S)—N5-(4-(2-methyloxazol-5-yl)pyridin-2-yl)-N7-((S)-1,1,1-trifluoropropan-2-yl)-3,4-dihydro-1,4-methanopyrido[2,3-b][1,4]diazepine-5,7(2H)-dicarboxamide]	> 150%	B (EC1.5 1-25 μM)	–	–
C[C@@H](NC(=O)c1ccc2c(n1)N(C(=O)Nc1cc3cc[nH]c3cn1)[C@H]1CCN2C1)C(F)(F)F [Example 181, (4S)—N5-(1H-pyrrolo[2,3-c]pyridin-5-yl)-N7-((R)-1,1,1-trifluoropropan-2-yl)-3,4-dihydro-1,4-methanopyrido[2,3-b][1,4]diazepine-5,7(2H)-dicarboxamide]	> 150%	A (EC1.5<1 μM)	–	–
O=C(NC(CCO)C(F)(F)F)c1ccc2c(n1)N(C(=O)Nc1ccccn1)[C@H]1CCN2C1 (single isomer, unassigned) [Example 18]	> 150%	A (EC1.5<1 μM)	–	–
CN(C)C(=O)c1ccnc(NC(=O)N2c3nc(C(=O)NCC(F)(F)F)ccc3N3CC[C@H]2C3)c1 [Example 259, (4S)—N5-(4-(dimethylcarbamoyl)pyridin-2-yl)-N7-(2,2,2-trifluoroethyl)-3,4-dihydro-1,4-methanopyrido[2,3-b][1,4]diazepine-5,7(2H)-dicarboxamide]	–	B (EC1.5 1-25 μM)	–	> 150%
O=C(NCC(F)(F)F)c1ccc2c(n1)N(C(=O)Nc1ccc3[nH]cnc3c1)[C@H]1CCN2C1 [Example 231, (4S)—N5-(1H-benzo[d]imidazol-5-yl)-N7-(2,2,2-trifluoroethyl)-3,4-dihydro-1,4-methanopyrido[2,3-b][1,4]diazepine-5,7(2H)-dicarboxamide]	> 150%	B (EC1.5 1-25 μM)	–	–
O=C(NCc1cccnc1)c1ccc2c(n1)N(C(=O)Nc1cc(OC[C@H](O)CO)ccn1)[C@H]1CCN2C1 [Example 226, (4S)—N5-(4-((R)-2,3-dihydroxypropoxy)pyridin-2-yl)-N7-(pyridin-3-ylmethyl)-3,4-dihydro-1,4-methanopyrido[2,3-b][1,4]diazepine-5,7(2H)-dicarboxamide]	> 150%	B (EC1.5 1-25 μM)	–	–
C[C@@H](NC(=O)c1ccc2c(n1)N(C(=O)Nc1ccon1)[C@H]1CCN2C1)C(F)(F)F [Example 251, (4S)—N5-(isoxazol-3-yl)-N7-((R)-1,1,1-trifluoropropan-2-yl)-3,4-dihydro-1,4-methanopyrido[2,3-b][1,4]diazepine-5,7(2H)-dicarboxamide]	> 150%	B (EC1.5 1-25 μM)	–	–
C[C@@H](NC(=O)c1ccc2c(n1)N(C(=O)Nc1cc(-c3cnco3)ccn1)[C@H]1CCN2C1)C(F)(F)F [Example 134, (4S)—N5-(4-(oxazol-5-yl)pyridin-2-yl)-N7-((R)-1,1,1-trifluoropropan-2-yl)-3,4-dihydro-1,4-methanopyrido[2,3-b][1,4]diazepine-5,7(2H)-dicarboxamide]	> 150%	A (EC1.5<1 μM)	–	–
Cc1ncc(-c2ccnc(NC(=O)N3c4nc(C(=O)NCC5CC5)ccc4N4CC[C@H]3C4)c2)o1 [Example 114, (4S)—N7-(cyclopropylmethyl)-N5-(4-(2-methyloxazol-5-yl)pyridin-2-yl)-3,4-dihydro-1,4-methanopyrido[2,3-b][1,4]diazepine-5,7(2H)-dicarboxamide]	> 150%	B (EC1.5 1-25 μM)	–	–
O=C(NCC(F)(F)F)c1ccc2c(n1)N(C(=O)Nc1cc(OC[C@H](O)CO)ccn1)[C@H]1CCN2C1 [Example 89, (4S)—N5-(4-((R)-2,3-dihydroxypropoxy)pyridin-2-yl)-N7-(2,2,2-trifluoroethyl)-3,4-dihydro-1,4-methanopyrido[2,3-b][1,4]diazepine-5,7(2H)-dicarboxamide]	> 150%	A (EC1.5<1 μM)	–	–
CC(F)(F)CNC(=O)c1ccc2c(n1)N(C(=O)Nc1ccccn1)[C@H]1CCN2C1 [Example 47, (4S)—N7-(2,2-difluoropropyl)-N5-(pyridin-2-yl)-3,4-dihydro-1,4-methanopyrido[2,3-b][1,4]diazepine-5,7(2H)-dicarboxamide]	> 150%	A (EC1.5<1 μM)	–	–
NC(CNC(=O)c1ccc2c(n1)N(C(=O)Nc1ccccn1)[C@H]1CCN2C1)C(F)(F)F (single isomer, unassigned) [Example 249]	–	B (EC1.5 1-25 μM)	–	–
